target: T1, human CXCR3 (N-delta 4) (Homo sapiens, UniProt P49682); assay: Human CXCR3 (N-delta 4) Scintillation Proximity Assay (SPA), [125I] IP-10 binding to Ba/F3-hCXCR3 membranes; details: IC50 rating, Table 1; read-out: IC50
T1 construct: CD8 leader (N); Flag; expressed in transfected cells; membranes prepared
T1 sequence (P49682 5-368 limits assumed): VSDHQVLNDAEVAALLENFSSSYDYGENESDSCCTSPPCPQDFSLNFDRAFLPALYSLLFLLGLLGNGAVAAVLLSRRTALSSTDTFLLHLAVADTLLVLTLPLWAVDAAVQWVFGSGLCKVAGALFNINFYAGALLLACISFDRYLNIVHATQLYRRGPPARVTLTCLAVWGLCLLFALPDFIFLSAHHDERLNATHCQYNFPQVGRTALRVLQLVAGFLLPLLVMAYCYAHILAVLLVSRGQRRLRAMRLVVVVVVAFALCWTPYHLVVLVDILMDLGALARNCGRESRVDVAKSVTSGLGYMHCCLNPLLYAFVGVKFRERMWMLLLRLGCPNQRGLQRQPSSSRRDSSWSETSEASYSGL
Text: The inventive compounds can readily be evaluated to determine activity at the CXCR3 receptors by known methods, such as, for example, development of a human CXCR3 (N-delta 4) Binding Assay.
Cloning and Expression of Human CXCR3 (N-delta 4):
The DNA encoding human CXCR3 was cloned by PCR using human genomic DNA (Promega, Madison, Wis.) as a template. The PCR primers were designed based on the published sequence of human orphan receptor GPR9 (1) with incorporated restriction sites, a Kozak consensus sequence, CD8 leader and Flag tag. The PCR product was subcloned into the mammalian expression vector pME18Sneo, a derivative of the SR-alpha expression vector (designated as pME18Sneo-hCXCR3 (N-delta 4).
IL-3-dependent mouse pro-B cells Ba/F3 were transfected by electroporation in 0.4 ml Dulbecco's PBS containing 4×10^6 cells with 20 μg of pME18Sneo-hCXCR3 (N-delta 4) plasmid DNA. Cells were pulsed at 400 Volts, 100 OHMs, 960 μFd. The transfected cells were under selection with 1 mg/ml G418 (Life Technologies, Gaithersburg, Md.). G418-resistant Ba/F3 clones were screened for CXCR3 expression by specific binding of [^125I] IP-10 (NEN Life Science Products, Boston, Mass.).
Preparation of Ba/F3-hCXCR3 (N-delta 4) Membranes:
Ba/F3 cells expressing human CXCR3 (N-delta 4) were pelleted and resuspended in the lysis buffer containing 10 mM HEPES, pH 7.5 and Complete® protease inhibitors (1 tablet per 100 ml) (Boehringer Mannheim, Indianapolis, Ind.) at a cell density of 20×10^6 cells per ml. After 5 minute incubation on ice, cells were transferred to 4639 cell disruption bomb (Parr Instrument, Moline, Ill.) and applied with 1,500 psi of nitrogen for 30 minutes on ice. Large cellular debris was removed by centrifugation at 1,000×g. Cell membrane in the supernatant was sedimented at 100,000×g. The membrane was resuspended in the lysis buffer supplemented with 10% sucrose and stored at −80° C. Total protein concentration of the membrane was determined by BCA method from Pierce (Rockford, Ill.).
Human CXCR3 (N-delta 4) Scintillation Proximity Assay (SPA):
For each assay point, 2 μg of membrane was preincubated for 1 hr with 300 μg wheat germ agglutinin (WGA) coated SPA beads (Amersham, Arlington Heights, Ill.) in the binding buffer (50 mM HEPES, 1 mM CaCl2, 5 mM MgCl2, 125 mM NaCl, 0.002% NaN3, 1.0% BSA) at room temperature. The beads were spun down, washed once, resuspended in the binding buffer and transferred to a 96-well Isoplate (Wallac, Gaithersburg, Md.). 25 pM of [^125I] IP-10 with tested compounds in a series of titration were added to start the reaction. After 3 hr reaction at room temperature, the amount of [^125I] IP-10 bound to the SPA beads was determined with a Wallac 1450 Microbeta counter.
The Ki ratings for the various compounds of the present invention are given in the afore-mentioned Table 1. From these ratings and value ranges, it would be apparent to the skilled artisan that the compounds of the invention have excellent utility as CXCR3 receptor antagonists.

| SMILES | IC50 [nM] |
| --- | --- |
| CC[C@H]1CN(c2nc(N)c(C(=O)NC)nc2Cl)CCN1C1CCN(Cc2ccc(-n3cncn3)cc2)CC1 [compound 75] | 25 to 100 |
| CC[C@H]1CN(c2nc(N)c(C(=O)NC)nc2Cl)CCN1C1CCN(CCCOc2ccc(F)cc2)CC1 [compound 78] | > 100 |
| CC[C@H]1CN(c2nc(N)c(C(=O)NC)nc2Cl)CCN1C1(C)CCN(Cc2ccc(Cl)cc2)CC1 [compound 80] | > 100 |
| CC[C@H]1CN(c2nc(N)c(C(=O)NC)nc2Cl)CCN1C1(C)CCN(Cc2ccc(Cl)cc2C(=O)NC)CC1 [compound 81] | > 100 |
| CC[C@H]1CN(c2nc(N)c(C(=O)NC3CC3)nc2Cl)CCN1C1CCN(Cc2ccc(Cl)cc2C(N)=O)CC1 [compound 82] | < 25 |
| CC[C@H]1CN(c2nc(N)c(C(=O)NC3CC3)nc2Cl)CCN1C1CCN(Cc2ccc(Cl)cc2F)CC1 [compound 83] | < 25 |
| CC[C@H]1CN(c2nc(N)c(C(=O)NC3CC3)nc2Cl)CCN1C1CCN(Cc2ccc(Cl)cc2O)CC1 [compound 84] | < 25 |
| CC[C@H]1CN(c2nc(N)c(C(=O)NC3CC3)nc2Cl)CCN1C1CCN(Cc2ccc(Cl)cc2OCCO)CC1 [compound 85] | < 25 |
| CC[C@H]1CN(c2nc(N)c(C(=O)NC3CC3)nc2Cl)CCN1C1CCN(Cc2ccc(C#N)cc2OCCO)CC1 [compound 86] | < 25 |
| CC[C@H]1CN(c2nc(N)c(C(=O)NC3CC3)nc2Cl)CCN1C1CCN(Cc2ccc(Cl)cc2CN)CC1 [compound 87] | < 25 |
| CC[C@H]1CN(c2nc(N)c(C(=O)NC3CC3)nc2Cl)CCN1C1CCN(Cc2ccc(Cl)cc2C#N)CC1 [compound 88] | < 25 |
| CC[C@H]1CN(c2nc(N)c(C(=O)NC3CC3)nc2Cl)CCN1C1CCN(Cc2ccc(C#N)cc2OCCOC)CC1 [compound 89] | < 25 |
| CC[C@H]1CN(c2nc(N)c(C(=O)NC3CC3)nc2Cl)CCN1C1CCN(Cc2ccc(Cl)cc2C(=O)OC)CC1 [compound 90] | < 25 |
| CC[C@H]1CN(c2nc(N)c(C(=O)NC3CC3)nc2Cl)CCN1C1CCN(Cc2ccc(C#N)cc2OCC(=O)NC2CC2)CC1 [compound 92] | < 25 |
| CC[C@H]1CN(c2nc(N)c(C(=O)NC3CC3)nc2Cl)CCN1C1CCN(Cc2ccc(C#N)cc2OCCN2CCCC2=O)CC1 [compound 93] | < 25 |
| C[C@@H]1CN(C2CCN(Cc3ccc(Cl)cc3F)CC2)[C@@H](C)CN1c1cnc(C(=O)NC2CC2)cn1 [compound 94] | 25 to 100 |
| CC[C@H]1CN(c2nc(N)c(C(=O)NC3CC3)nc2Cl)CCN1C1CCN(Cc2ccc(Cl)cc2)CC1O (stereo partly shown) [compound 95] | 25 to 100 |

| SMILES | IC50 [nM] |
| --- | --- |
| CC[C@H]1CN(c2nc(N)c(C(=O)NC3CC3)nc2Cl)CCN1C1CCN(Cc2ccc(OCC(N)=O)cc2)CC1 [compound 97] | > 100 |
| CC[C@H]1CN(c2nc(N)c(C(=O)NC3CC3)nc2Cl)CCN1C1CCN(Cc2ccc(Cl)cc2)CC1O (stereo partly shown) [compound 98] | > 100 |
| CC[C@H]1CN(c2nc(N)c(C(=O)NCCOc3ccccc3)nc2Cl)CCN1C1CCN(Cc2ccc(C#N)cc2)CC1 [compound 99] | < 25 |
| CC[C@H]1CN(c2nc(N)c(C(=O)NCCS(C)(=O)=O)nc2Cl)CCN1C1CCN(Cc2ccc(Cl)cc2)CC1 [compound 100] | < 25 |
| CC[C@H]1CN(c2nc(N)c(C(=O)NCCS(C)(=O)=O)nc2Cl)CCN1C1CCN(Cc2ccc(Cl)cc2)CC1 [compound 101] | 25 to 100 |
| CCNC(=O)c1nc(Cl)c(N2CCN(C3CCN(Cc4ccc(Cl)cc4F)CC3)[C@@H](CC)C2)nc1N [compound 103] | < 25 |
| CCNC(=O)c1nc(Cl)c(N2CCN(C3CCN(C(C)(C)c4ccc(Cl)cc4)CC3)[C@@H](C)C2)nc1N [compound 106] | > 100 |
| CC[C@H]1CN(c2nc(N)c(C(=O)NCCO)nc2Cl)CCN1C1CCN(Cc2ccc(Cl)cc2CO)CC1 [compound 107] | < 25 |
| CC[C@H]1CN(c2nc(N)c(C(=O)NCCO)nc2Cl)CCN1C1CCN(Cc2ccc(Cl)cc2/C(N)=N\O)CC1 [compound 108] | < 25 |
| CC[C@H]1CN(c2nc(N)c(C(=O)NCCO)nc2Cl)CCN1C1CCN(Cc2ccc(Cl)cc2C(=N)N)CC1 [compound 111] | < 25 |
| CC[C@H]1CN(c2nc(N)c(C(=O)NCCO)nc2Cl)CCN1C1CCN(Cc2ccc(OC(F)(F)F)cc2)CC1 [compound 112] | < 25 |
| CC[C@H]1CN(c2nc(N)c(C(=O)NCCO)nc2Cl)CCN1C1CCN(Cc2ccc(Cl)cc2F)CC1 [compound 113] | < 25 |
| CCOC(=O)/N=C(\N)c1cc(Cl)ccc1CN1CCC(N2CCN(c3nc(N)c(C(=O)NCCO)nc3Cl)C[C@@H]2CC)CC1 [compound 114] | < 25 |
| CC[C@H]1CN(c2nc(N)c(C(=O)NCCO)nc2Cl)CCN1C1CCN(Cc2ccc(Cl)cc2OCCOC)CC1 [compound 115] | < 25 |
| CC[C@H]1CN(c2nc(N)c(C(=O)NCCO)nc2Cl)CCN1C1CCN(Cc2ccc(C(=O)OC)cc2)CC1 [compound 117] | < 25 |
| CC[C@H]1CN(c2nc(N)c(C(=O)NCCO)nc2Cl)CCN1C1CCN(Cc2ccc(OC(F)(F)F)cc2OCCOC)CC1 [compound 118] | < 25 |

Results, then the compound that gave them:

| IC50 [nM] | SMILES |
| --- | --- |
| 25 to 100 | CC[C@H]1CN(c2nc(N)c(C(=O)NC)nc2Cl)CCN1C1CCN([C@@H](C(=O)NC)c2ccc(Cl)cc2)CC1 [compound 71] |
| 25 to 100 | CC[C@H]1CN(c2nc(N)c(C(=O)NC)nc2Cl)CCN1C1CCN(CCCCc2ccc(Cl)cc2)CC1 [compound 72] |
| 25 to 100 | CC[C@H]1CN(c2nc(N)c(C(=O)NC)nc2Cl)CCN1C1CCN(CCCC(=O)c2ccc(Cl)cc2)CC1 [compound 73] |
| 25 to 100 | CC[C@H]1CN(c2nc(N)c(C(=O)NC)nc2Cl)CCN1C1CCN([C@H](CO)c2ccc(Cl)cc2)CC1 [compound 74] |
| > 100 | CC[C@H]1CN(c2nc(N)c(C(=O)NC)nc2Cl)CCN1C1CCN([C@@H](C(N)=O)c2ccc(Cl)cc2)CC1 [compound 76] |
| > 100 | CC[C@H]1CN(c2nc(N)c(C(=O)NC)nc2Cl)CCN1C1CCN([C@H](C(=O)OC)c2ccc(Cl)cc2)CC1 [compound 77] |
| > 100 | CC[C@H]1CN(c2nc(N)c(C(=O)NC)nc2Cl)CCN1C1CCN(CCCNC(=O)c2ccc(Cl)cc2)CC1 [compound 79] |
| < 25 | CCC1CN(c2nc(N)c(C(=O)NC3CC3)nc2Cl)CCN1C1CCN(C(CCN)c2ccc(Cl)cc2)CC1 (stereo not shown) [compound 91] |
| > 100 | CC[C@H]1CN(c2nc(N)c(C(=O)NC3CC3)nc2Cl)CCN1C1CCN(C(CCNC(=O)OC(C)(C)C)c2ccc(Cl)cc2)CC1 (stereo partly shown) [compound 96] |
| < 25 | CCNC(=O)c1nc(Cl)c(N2CCN(C3CCN(Cc4ccc(Cl)cc4)CC3)[C@@H](CC)C2)nc1N [compound 102] |
| 25 to 100 | CCNC(=O)c1nc(Cl)c(N2CCN(C3CCN(C(C)(C)c4ccc(Cl)cc4)CC3)[C@@H](CC)C2)nc1N [compound 104] |
| > 100 | CC[C@H]1CN(c2nc(N)c(C(=O)NCC(=O)O)nc2Cl)CCN1C1CCN(Cc2ccc(Cl)cc2)CC1 [compound 105] |
| < 25 | CC[C@H]1CN(c2nc(N)c(C(=O)NCCO)nc2Cl)CCN1C1CCN([C@@H](CO)c2ccc(Cl)cc2)CC1 [compound 109] |
| < 25 | CC[C@H]1CN(c2nc(N)c(C(=O)NCCO)nc2Cl)CCN1C1CCN(Cc2ccc(Cl)cc2)CC1 [compound 110] |
| < 25 | CC[C@H]1CN(c2nc(N)c(C(=O)NCCO)nc2Cl)CCN1C1CCN([C@@H](CO)c2ccc(C#N)cc2)CC1 [compound 116] |

same assay, conditions: read-out: IC50

| IC50 [nM] | SMILES |
| --- | --- |
| 0.2 | CC[C@H]1CN(c2nc(N)c(C(=O)NCCO)nc2Cl)CCN1C1CCN(Cc2ccc(Cl)cc2CO)CC1 [compound 107] |
